Assay results taken from ChEMBL document CHEMBL1201862, “PubChem BioAssay data set” (2004).
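Grown in 96-well plates, cells were treated for 48 hours with each compound at five concentrations. Insufficient inhibition: endpoint recorded as highest concentration tested. GI50: concentration for 50% inhibition of growth.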 Calls of active or inactive are those of the source. Rule as the data show it: active = GI50 up to about 1.1 µM and inactive = higher.

Legend:
Experiment in all cases: NCI-60 cell line screen, 48 h
A549 = test system: A549
EKVX = test system: EKVX
HCT-15 = test system: HCT-15
HOP-92 = test system: HOP-92
Hs-578T = test system: Hs-578T
KM12 = test system: KM12
LOX IMVI = test system: LOX IMVI
MDA-MB-231 = test system: MDA-MB-231
MDA-MB-435 = test system: MDA-MB-435
NCI-H23 = test system: NCI-H23
NCI-H522 = test system: NCI-H522
NCI/ADR-RES = test system: NCI/ADR-RES
OVCAR-8 = test system: OVCAR-8
RPMI-8226 = test system: RPMI-8226
SF-268 = test system: SF-268
SR = test system: SR
UO-31 = test system: UO-31
BT-549 = test system: BT-549
RXF 393 = test system: RXF 393
SK-OV-3 = test system: SK-OV-3

| SMILES | GI50 (A549) | GI50 (EKVX) | GI50 (HCT-15) [µM] | GI50 (HOP-92) | GI50 (Hs-578T) | GI50 (KM12) | GI50 (LOX IMVI) | GI50 (MDA-MB-231) | GI50 (MDA-MB-435) | GI50 (NCI-H23) | GI50 (NCI-H522) | GI50 (NCI/ADR-RES) | GI50 (OVCAR-8) | GI50 (RPMI-8226) | GI50 (SF-268) | GI50 (SR) | GI50 (UO-31) | GI50 (BT-549) | GI50 (RXF 393) | GI50 (SK-OV-3) |
| --- | --- | --- | --- | --- | --- | --- | --- | --- | --- | --- | --- | --- | --- | --- | --- | --- | --- | --- | --- | --- |
| O=C1OC(C(O)CO)C(O)=C1O (stereo not given) | > 100 µM (inactive) | > 100 µM (inactive) | > 100 | > 100 µM (inactive) | > 100 µM (inactive) | > 100 µM (inactive) | > 100 µM (inactive) | > 100 µM (inactive) | > 100 µM (inactive) | > 100 µM (inactive) | > 100 µM (inactive) | > 100 µM (inactive) | > 100 µM (inactive) | 49.2 µM (inactive) | > 100 µM (inactive) | 55.3 µM (inactive) | > 100 µM (inactive) |  |  |  |
| CCOP(=O)(OCC)/C(C#N)=C/c1cn(C)cn1 | > 100 µM (inactive) | > 100 µM (inactive) | > 100 | > 100 µM (inactive) |  | > 100 µM (inactive) |  | > 100 µM (inactive) | > 100 µM (inactive) | > 100 µM (inactive) | > 100 µM (inactive) | > 100 µM (inactive) | > 100 µM (inactive) |  | > 100 µM (inactive) | > 100 µM (inactive) | > 100 µM (inactive) | > 100 µM (inactive) | > 100 µM (inactive) | > 100 µM (inactive) |
| Cc1ccc(C2CC(=O)CC(c3ccc(C)cc3)C23C(=O)NC(=O)NC3=O)cc1 (stereo not given) |  | > 100 µM (inactive) | > 100 | > 100 µM (inactive) |  | > 100 µM (inactive) | > 100 µM (inactive) | > 100 µM (inactive) | > 100 µM (inactive) | > 100 µM (inactive) | > 100 µM (inactive) | > 100 µM (inactive) | > 100 µM (inactive) | > 100 µM (inactive) | > 100 µM (inactive) | 60.1 µM (inactive) | > 100 µM (inactive) | > 100 µM (inactive) | > 100 µM (inactive) |  |
| COC(=O)Cc1cc2c(cc1C(=O)c1ccc(N)cc1)OCO2 | 3.62 µM (inactive) | 4.03 µM (inactive) | 1.1 | 2.37 µM (inactive) | 2.26 µM (inactive) | 0.488 µM (active) | 5.45 µM (inactive) | 3.42 µM (inactive) | 0.169 µM (active) | 5.68 µM (inactive) | 0.228 µM (active) | 0.667 µM (active) | 3.56 µM (inactive) | 1.5 µM (inactive) | 2.62 µM (inactive) | 0.117 µM (active) | 13.6 µM (inactive) |  | 4.34 µM (inactive) | 2.94 µM (inactive) |
| CC(C)(C)NNc1c([N+](=O)[O-])cnn(-c2ccccc2)c1=O | 15.3 µM (inactive) | 9.14 µM (inactive) | 3.95 | 6.5 µM (inactive) | 7.76 µM (inactive) | 10.4 µM (inactive) | 1.79 µM (inactive) |  | 1.81 µM (inactive) | 4.82 µM (inactive) | 1.77 µM (inactive) |  | 2.26 µM (inactive) | 3.96 µM (inactive) | 9.82 µM (inactive) | 1.58 µM (inactive) | 6.12 µM (inactive) | 1.41 µM (inactive) | 8.32 µM (inactive) | 9.02 µM (inactive) |
| CC(Nc1ccc(S(=O)(=O)NC(=N)N)cc1)c1c2ccccc2nc2ccccc12 (stereo not given) | 31.4 µM (inactive) | 25.5 µM (inactive) | 29.2 | 18.5 µM (inactive) |  | 34.8 µM (inactive) | 28 µM (inactive) |  |  | 22.5 µM (inactive) | 15.1 µM (inactive) |  | 23.9 µM (inactive) | 16.3 µM (inactive) | 31 µM (inactive) | 14.2 µM (inactive) | 19 µM (inactive) |  | 26.9 µM (inactive) | 26.4 µM (inactive) |
| S=P1(Sc2ccccc2)Oc2ccc3ccccc3c2-c2c(ccc3ccccc23)O1 | > 100 µM (inactive) | > 100 µM (inactive) | > 80.4 | > 100 µM (inactive) |  | > 100 µM (inactive) | > 79.6 µM (inactive) |  |  | > 100 µM (inactive) | 49.9 µM (inactive) | > 100 µM (inactive) | > 100 µM (inactive) | > 100 µM (inactive) | > 100 µM (inactive) |  | > 100 µM (inactive) |  | > 83 µM (inactive) | > 100 µM (inactive) |
| CC1(CO)COC(C)(C)OC1 | > 100 µM (inactive) |  | > 100 | > 100 µM (inactive) | > 100 µM (inactive) | > 100 µM (inactive) | > 100 µM (inactive) | > 100 µM (inactive) | > 100 µM (inactive) | > 100 µM (inactive) | > 100 µM (inactive) | > 100 µM (inactive) | > 100 µM (inactive) |  | > 100 µM (inactive) | > 100 µM (inactive) | > 100 µM (inactive) |  | > 100 µM (inactive) | > 100 µM (inactive) |
